“Also recorded” adds a separate entry of the source.
Tests used:
[1] = test system: CCD25 Lu (human normal lung); test: Apoptosis assay, CCD25 Lu cells; assay type: cell-based; conditions: peptide fragment: 6 hours
[2] = test system: LNCaP (prostate cancer) cells; test: Cell death (apoptosis) assay, LNCaP cells; assay type: cell-based, human; conditions: for induced apoptosis: 4 hours; for apoptotic activity relative to fetuin prepared by other methods, later conservative estimate: conservatively estimated
Experimental: […] The free Zinc Acetate and Barium Acetate were removed by repetitive concentration. Fetuin was tested in LNCaP and HL-60 cells. […] Fetuin (in 10 μl PBS) at concentration of 100 ng/ml was added 3-4 hours after the cells were seeded.

HL-60 (leukemia) cells = test: Cell death (apoptosis) assay, HL-60 cells; assay type: cell-based, human; conditions: for apoptotic activity, panel of cell lines (in words): peptide fragment: 6 hours
Experimental: Fetuin purified from fetal bovine serum by the procedure described above was dissolved in phosphate buffer saline (PBS). The free Zinc Acetate and Barium Acetate were removed by repetitive concentration. Fetuin was tested in LNCaP and HL-60 cells. […] Fetuin (in 10 μl PBS) at concentration of 100 ng/ml was added 3-4 hours after the cells were seeded.

[3] = test system: CCD-18 Co (human normal colon fibroblast); test: Apoptosis assay, CCD-18 Co cells; assay type: cell-based; conditions: for apoptotic activity, panel of cell lines (in words): peptide fragment: 6 hours
Text: Zinc charged alpha 1-acid glycoprotein has no effect on CCD 18Co cells (human normal colon fibroblast).

[4] = test system: HT-29 (human colon adenocarcinoma); test: Apoptosis assay, HT-29 cells; conditions: for apoptotic activity, panel of cell lines (in words): peptide fragment: 6 hours
Experimental: Prostate cancer cell line LNCAP was routinely used for the isolation of Apogen P-1 and Apogen P-2, whereas leukemia cell line HL-60 was used for the isolation of Apogen L. The methods of assays were as follows: LNCAP or HL-60 (1,000 cells) was seeded in 10 microliters RPMI containing 15% or 20% Fetal bovine serum, penicillin and streptomycin at 37 degrees, 5% CO2 in Microtray plates (25 μl wells, Robbins Scientific Corp.). The tested sample (10 μl) was added 3-4 hours after cells were seeded. After incubation of the tested sample with cells for 15 hours, two microliters of Hoechst dye (0.03 ng/ml in PBS) was added. Two hours later, cells that were stained with Hoechst dye were examined under fluorescence microscope. […] The percentage of apoptotic cells was calculated by the following equation:
The DNA condensation, DNA fragmentation and peripheral crescents of the nuclei are characteristics of a cell under apoptosis.

[5] = test system: CCD 39 Lu (normal lung fibroblast); test: Apoptosis assay, CCD 39 Lu cells; assay type: cell-based, human
[6] = test system: p3HR-1 (human Burkitt lymphoma); test: Apoptosis assay, p3HR-1 cells; assay type: cell-based; conditions: peptide fragment: 6 hours
[7] = test system: Calu-1 (human lung carcinoma); test: Apoptosis assay, Calu-1 cells; assay type: cell-based; conditions: for apoptotic activity, panel of cell lines (in words): peptide fragment: 6 hours
Hep G2 (Human hepatoma) = test: Apoptosis assay, Hep G2 cells
cancer cell lines = test: Apoptosis assay, cancer cells (cell line not given); assay type: cell-based; conditions: cancer cells
[8] = test system: Hs578 Bst (human normal breast); test: Apoptosis assay, Hs578 Bst cells; assay type: cell-based; conditions: peptide fragment: 6 hours
Colo 205 (colon cancer) = test: Apoptosis assay, Colo 205 cells; assay type: cell-based; conditions: 50 μg/ml
Experimental: The tested sample (10 μl) was added 3-4 hours after cells were seeded. After incubation of the tested sample with cells for 15 hours, two microliters of Hoechst dye (0.03 ng/ml in PBS) was added. Two hours later, cells that were stained with Hoechst dye were examined under fluorescence microscope. […] The percentage of apoptotic cells was calculated by the following equation:

PC-3 (prostate cancer) = test: Apoptosis assay, PC-3 cells; assay type: cell-based; conditions: 50 μg/ml
[9] = test system: MCF-7 (breast cancer) cells; test: Apoptosis assay, MCF-7 cells; assay type: cell-based
[10] = 100 ng/ml in PBS, 15 hours, Hoechst dye

## zinc charged alpha 1-antitrypsin: alpha 1-antitrypsin (Sigma), EDTA treated and charged with zinc acetate
[1]
  apoptotic activity, panel of cell lines (in words): no effect was seen
[2]
  apoptotic activity, panel of cell lines (in words): induced apoptosis
HL-60 (leukemia) cells
  apoptotic activity, panel of cell lines (in words): induced apoptosis
[3]
  apoptotic activity, panel of cell lines (in words): no effect was seen
[4]; 5 μM, 4 hours
  apoptotic activity / morphology (in words): caused cell shrinkage and membrane blebbing
[4]
  apoptotic activity, panel of cell lines (in words): induced apoptosis
[5]
  apoptotic activity, panel of cell lines (in words): no effect was seen
[6]
  apoptotic activity, panel of cell lines (in words): induced apoptosis
[7]
  apoptotic activity, panel of cell lines (in words): induced apoptosis

## zinc charged alpha 1-acid glycoprotein: alpha 1-acid glycoprotein from adult human serum, EDTA treated and charged with zinc acetate
Hep G2 (Human hepatoma)
  apoptotic activity, panel of cell lines (in words): apoptotic activity was present
Hep G2 (Human hepatoma); 5 μM, 4 hours
  cell death: 90%
[1]
  apoptotic activity, panel of cell lines (in words): no activity was present; also recorded: no effect was seen
[2]
  apoptotic activity, panel of cell lines (in words): apoptotic activity was present
HL-60 (leukemia) cells
  apoptotic activity, panel of cell lines (in words): apoptotic activity was present
[3]; 5 μM, six hours
  cell death (in words): did not cause cell death
[3]
  apoptotic activity, panel of cell lines (in words): no activity was present
[4]; 5 μM, 4 hours
  apoptosis: 100%
  apoptotic activity / morphology (in words): resulted in the condensation and fragmentation of DNA
[4]
  apoptotic activity, panel of cell lines (in words): apoptotic activity was present
Cancer cell lines
  concentration at which apoptotic activity was induced (apoptotic threshold): 0.75 µM
[6]
  apoptotic activity, panel of cell lines (in words): apoptotic activity was present
[7]
  apoptotic activity, panel of cell lines (in words): apoptotic activity was present
[8]
  apoptotic activity, panel of cell lines (in words): no activity was present; also recorded: no effect was seen

B1: fetuin: bovine fetuin from fetal bovine serum by the modified Spiro method with zinc acetate (Section 4A) (protein, UniProt P12763 19-359, looked up)
Alpha-2-HS-glycoprotein: IPLDPVAGYKEPACDDPDTEQAALAAVDYINKHLPRGYKHTLNQIDSVKVWPRRPTGEVYDIEIDTLETTCHVLDPTPLANCSVRQQTQHAVEGDCDIHVLKQDGQFSVLFTKCDSSPDSAEDVRKLCPDCPLLAPLNDSRVVHAVEVALATFNAESNGSYLQLVEISRAQFVPLPVSVSVEFAVAATDCIAKEVVDPTKCNLLAEKQYGFCKGSVIQKALGGEDVRVTCTLFQTQPVIPQPQPDGAEAEAPSAVPDAAGPTPSAAGPPVASVVVGPSVVAVPLPLHRAHYDLRHTFSGVASVESSSGEAFHVGKTPIVGQPSIPGGPVRLCPGRIRYFKI
modifications: zinc
[2]; [10]
  apoptosis, nuclear morphology (in words): showed the characteristics of apoptosis
[2]; 25 μg/ml
  induction of apoptosis (in words): highly induced apoptosis
  induced apoptosis: up to 90%
[2]; 50 μg/ml
  induction of apoptosis (in words): strongly induced apoptosis
[2]; approximately 50 μM
  induced apoptosis: up to 90%
[2]; listed as Fetuin as prepared in Section 4A
  apoptotic activity relative to fetuin prepared by other methods, later conservative estimate: approximately 100 times
[2]; listed as fetuin as prepared in Section 4A
  apoptotic activity relative to fetuin prepared by other methods, later conservative estimate: more than one hundred times greater
[2]; initially estimated
  apoptotic activity relative to fetuin prepared by other methods, initial estimate: more than fifty thousand folds higher; also recorded: more than fifty thousand times higher
HL-60 (leukemia) cells; [10]
  apoptosis, nuclear morphology (in words): showed the characteristics of apoptosis
HL-60 (leukemia) cells; 25 μg/ml
  induction of apoptosis (in words): highly induced apoptosis
HL-60 (leukemia) cells; 50 μg/ml
  induction of apoptosis (in words): strongly induced apoptosis
Colo 205 (colon cancer)
  induction of apoptosis (in words): strongly induced apoptosis
PC-3 (prostate cancer)
  induction of apoptosis (in words): strongly induced apoptosis
[5]; 25 μg/ml, 15 hours
  induction of apoptosis (in words): inactive in inducing apoptosis
[5]; 50 μg/ml
  induction of apoptosis (in words): is not affected
[7]; 50 μg/ml
  induction of apoptosis (in words): strongly induced apoptosis
[9]; 25 μg/ml
  induction of apoptosis (in words): highly induced apoptosis
[9]; 50 μg/ml
  induction of apoptosis (in words): strongly induced apoptosis

Reference: patent US8247380B2, “Alpha 1-acid glycoprotein, alpha 2-HS glycoprotein, alpha 1-antitrypsin, and fragments thereof induce apoptosis in cancer cell lines” (Ambryx Biotechnology, D.C., priority 1997, dated 2012)
